Test results as given in PubChem BioAssay (NCI).
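Five concentrations, 48 hours, 96-well plates. TGI: total growth inhibition.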

What was measured:
Assay in all cases: NCI-60 cell line screen, 48 h
[1] = test system: K-562 leukemia
[2] = test system: MOLT-4 leukemia
[3] = test system: CCRF-CEM leukemia
[4] = test system: HL-60(TB) leukemia
[5] = test system: SK-OV-3 ovarian
[6] = test system: HCC-2998 colon
[7] = test system: SNB-75 CNS
[8] = test system: SNB-19 CNS
[9] = test system: TK-10 renal
[10] = test system: MDA-MB-435
[11] = test system: 786-0 renal
[12] = test system: BT-549 breast
[13] = test system: SF-539 CNS
[14] = test system: KM12 colon
[15] = test system: HOP-62 NSCLC
[16] = test system: HCT-15 colon
[17] = test system: SF-295 CNS
[18] = test system: COLO 205 colon
[19] = test system: HS 578T breast
[20] = test system: A549 NSCLC
[21] = test system: UACC-257 melanoma
[22] = test system: SK-MEL-5 melanoma
[23] = test system: DU-145 prostate
[24] = test system: T-47D breast
[25] = test system: LOX IMVI melanoma
[26] = test system: OVCAR-3 ovarian
[27] = test system: SK-MEL-28 melanoma
[28] = test system: SN12C renal
[29] = test system: NCI-H226 lung
[30] = test system: ACHN renal
[31] = test system: MCF7 breast
[32] = test system: SR leukemia
[33] = test system: MDA-MB-231 breast
[34] = test system: RXF 393 renal
[35] = test system: PC-3 prostate
[36] = test system: NCI-H522 lung
[37] = test system: UACC-62 melanoma
[38] = test system: SW-620 colon
[39] = test system: OVCAR-4 ovarian
[40] = test system: NCI/ADR-RES ovarian
[41] = test system: RPMI-8226 leukemia
[42] = test system: MALME-3M melanoma
[43] = test system: U251 CNS
[44] = test system: HT29 colon
[45] = test system: NCI-H23 lung
[46] = test system: HCT-116 colon
[47] = test system: MDA-N
[48] = test system: SK-MEL-2 melanoma
[49] = test system: A498 renal
[50] = test system: OVCAR-8 ovarian
[51] = test system: IGROV1 ovarian
[52] = test system: EKVX NSCLC
[53] = test system: M14 melanoma
[54] = test system: SF-268 CNS
[55] = test system: NCI-H460 lung
[56] = test system: HOP-92 NSCLC
[57] = test system: OVCAR-5 ovarian
[58] = test system: CAKI-1 renal
[59] = test system: UO-31 renal

CCOC(=O)/C=C(\C(=O)OCC)n1ccc(=O)n(Cc2cnnn2COCCOC(C)=O)c1=O
TGI [1]: > 100 µM | TGI [2]: 10.3 µM | TGI [3]: 4.53 µM | TGI [4]: 2.04 µM | TGI [5]: > 100 µM | TGI [6]: 33.4 µM | TGI [7]: 40.1 µM | TGI [8]: > 66.4 µM | TGI [9]: 12.6 µM | TGI [10]: 22.5 µM | TGI [11]: 15.3 µM | TGI [12]: 22.3 µM | TGI [13]: 5.66 µM | TGI [14]: 32.1 µM | TGI [15]: 38.5 µM | TGI [16]: > 41.3 µM | TGI [17]: > 66.6 µM | TGI [18]: 4.36 µM | TGI [19]: 61.6 µM | TGI [20]: 43.4 µM | TGI [21]: 30.8 µM | TGI [22]: 54.3 µM | TGI [23]: 37.7 µM | TGI [24]: 27.5 µM | TGI [25]: > 40.7 µM | TGI [26]: 25.1 µM | TGI [27]: 25.2 µM | TGI [28]: 36.2 µM | TGI [29]: 43.2 µM | TGI [30]: 10.2 µM | TGI [31]: 21.4 µM | TGI [32]: > 31.2 µM | TGI [33]: 35 µM | TGI [34]: 14.5 µM | TGI [35]: 33.7 µM | TGI [36]: 3.53 µM | TGI [37]: 31 µM | TGI [38]: 5.93 µM | TGI [39]: 54.8 µM | TGI [40]: 58.7 µM | TGI [41]: > 42 µM | TGI [42]: 4.34 µM | TGI [43]: 32.6 µM | TGI [44]: 28.1 µM | TGI [45]: 33.1 µM | TGI [46]: 41.7 µM | TGI [47]: 33 µM | TGI [48]: 38.5 µM | TGI [49]: 41.3 µM | TGI [50]: 27.3 µM | TGI [51]: 36.7 µM | TGI [52]: 32.6 µM | TGI [53]: 31.7 µM | TGI [54]: 36.4 µM | TGI [55]: 34.1 µM | TGI [56]: 2.16 µM | TGI [57]: 32 µM | TGI [58]: 7.62 µM | TGI [59]: 30.5 µM

O=C(/C=C/c1cccc(Br)c1)c1ccc(Cl)cc1
TGI [1]: 45.7 µM | TGI [2]: 77.8 µM | TGI [3]: 24.9 µM | TGI [4]: 44.5 µM | TGI [5]: 43.6 µM | TGI [6]: 33.7 µM | TGI [7]: 28.1 µM | TGI [8]: 30.1 µM | TGI [9]: 27.2 µM | TGI [10]: 25.5 µM | TGI [11]: 28.3 µM | TGI [12]: 31.9 µM | TGI [13]: 30.4 µM | TGI [14]: 32.5 µM | TGI [15]: 35.9 µM | TGI [16]: 31.1 µM | TGI [17]: 32.6 µM | TGI [18]: 30.9 µM | TGI [19]: 57.3 µM | TGI [20]: 33.5 µM | TGI [21]: 32.1 µM | TGI [22]: 27.2 µM | TGI [23]: 30.3 µM | TGI [24]: 32.1 µM | TGI [25]: 28 µM | TGI [26]: 32.3 µM | TGI [27]: 29.1 µM | TGI [28]: 32.4 µM | TGI [29]: 33.7 µM | TGI [30]: 30.4 µM | TGI [31]: 16.3 µM | TGI [32]: 20.4 µM | TGI [33]: 35.2 µM | TGI [34]: 35.5 µM | TGI [35]: 28.2 µM | TGI [36]: 30.5 µM | TGI [37]: 29 µM | TGI [38]: 13.3 µM | TGI [39]: 32.1 µM | TGI [40]: 59.2 µM | TGI [41]: 6.31 µM | TGI [42]: 29 µM | TGI [43]: 18.6 µM | TGI [44]: 24.5 µM | TGI [45]: 32.7 µM | TGI [46]: 18 µM | TGI [47]: 20 µM | TGI [48]: 29.3 µM | TGI [49]: 26.5 µM | TGI [50]: 32.1 µM | TGI [51]: 35.8 µM | TGI [52]: 29.7 µM | TGI [53]: 28.1 µM | TGI [54]: 34.1 µM | TGI [55]: 37.3 µM | TGI [56]: 31.7 µM | TGI [57]: 30.6 µM | TGI [58]: 40.1 µM | TGI [59]: 29.3 µM
